Drawing on patent US20230218632A1, “CYCLIC SULFONAMIDE DERIVATIVES AS TRAP1 MODULATORS AND USES THEREOF” (Amathus Therapeutics, Inc., priority 2020, published 2023), this text covers ROS production for 1 compound.

The test deals with primary rat dopaminergic neurons. As to the kind of experiment: ROS production in primary rat dopaminergic TH-positive neurons after 6-OHDA injury. The class given is cell-based. The note with it: after injury with 6-OHDA (20 µM, 4 h); FIG. 1. On the procedure:
Rat dopaminergic neurons were cultured as described by Visanji et al., 2008. Briefly, pregnant female rat of 15 days of gestation are sacrificed using a deep anesthesia with CO2 chamber and a cervical dislocation. The midbrains obtained from 15-day-old rat embryos are dissected under a microscope. The embryonic midbrains are removed and placed in ice-cold medium of Leibovitz (L15) containing 2% of Penicillin- Streptomycin (PS) and 1% of bovine serum albumin (BSA). The ventral portion of the mesencephalic flexure, a region of the developing brain rich in dopaminergic neurons, is used for the cell preparations.
The midbrains are dissociated by trypsinisation for 20 min at 37° C. (solution at a final concentration of 0.05% trypsin and 0.02% EDTA). The reaction is stopped by the addition of Dulbecco’s modified Eagle’s medium (DMEM) containing DNAase I grade II (0.5 mg/mL) and 10% of foetal calf serum (FCS). Cells are then mechanically dissociated by 3 passages through a 10 mL pipette. Cells are then centrifuged at 180 x g for 10 min at +4° C. on a layer of BSA (3.5%) in L15 medium. […] Viable cells are counted in a Neubauer cytometer using the trypan blue exclusion test. […] Six wells per condition are assessed. […]

Consider `O=C(Nc1ccc2c(c1)S(=O)(=O)N(c1ccc(Br)cc1)CCO2)c1cnc(-c2ccccc2)[nH]1` [Compound 1331, N-(2-(4-bromophenyl)-1,1-dioxido-3,4-dihydro-2H-benzo[b][1,4,5]oxathiazepin-8-yl)-2-phenyl-1H-imidazole-5-carboxamide], for which the ROS production result is reported as “reduction in ROS”.
